pIC50: −log10 of the molar value.
Tested on: MCF7 complex spheroid growth, % test/control
Assay: Anticancer human tumor MCF7 cell line growth inhibition [Asc];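 also: spheroids exposed to compounds for 7 days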;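 as to viability, T/C: 100% = DMSO vehicle control wells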
Details: for pIC50: curve of first compound; for viability, T/C: stronger effect = lower value
Summary of the method: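 Complex solid-tumor spheroids incorporating human endothelial and mesenchymal stem cells received single agents or combinations over half-log dilution ranges anchored to clinical Cmax.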

[1] = second compound 0.00316 µM, first compound 0.0316 µM
[2] = second compound 0.00316 µM, first compound 0.1 µM
[3] = second compound 0.01 µM, first compound 0.0316 µM
[4] = second compound 0.01 µM, first compound 0.1 µM
[5] = second compound 0.0316 µM, first compound 0.0316 µM
[6] = second compound 0.0316 µM, first compound 0.1 µM
[7] = second compound 0.1 µM, first compound 0.0316 µM
[8] = second compound 0.1 µM, first compound 0.1 µM
[9] = second compound 0.316 µM, first compound 0.0316 µM
[10] = second compound 0.316 µM, first compound 0.1 µM
[11] = second compound 1 µM, first compound 0.0316 µM
[12] = second compound 1 µM, first compound 0.1 µM

`NC1CCC(NC2CC2c2ccccc2)CC1` (centres undefined) + CNC(C)C(=O)NC1CN(S(=O)(=O)c2cccc(S(=O)(=O)N3CCC4CCC(C(=O)NC(c5ccccc5)c5ccccc5)N4C(=O)C(NC(=O)C(C)NC)C3)c2)CCC2CCC(C(=O)NC(c3ccccc3)c3ccccc3)N2C1=O was tested, and the pIC50 (second compound 0.00316 µM) was > 9.50, the pIC50 (second compound 0.01 µM) was > 9.50 and the pIC50 (second compound 0.0316 µM) was > 9.50. For the same compound, the pIC50 (second compound 0.1 µM) was > 9.50, the pIC50 (second compound 0.316 µM) was > 9.50 and the pIC50 (second compound 1 µM) was > 9.50. For the same compound, the viability, T/C (second compound 0.00316 µM, first compound 0.000316 µM) was 23.3%, the viability, T/C (second compound 0.00316 µM, first compound 0.001 µM) was 18.5% and the viability, T/C (second compound 0.00316 µM, first compound 0.00316 µM) was 16.4%. For the same compound, the viability, T/C (second compound 0.00316 µM, first compound 0.01 µM) was 21.6%, the viability, T/C [1] was 18.2% and the viability, T/C [2] was 22.6%. The viability, T/C (second compound 0.01 µM, first compound 0.000316 µM) was 11.9%, the viability, T/C (second compound 0.01 µM, first compound 0.001 µM) was 12.3% and the viability, T/C (second compound 0.01 µM, first compound 0.00316 µM) was 12.2%. For the same compound, the viability, T/C (second compound 0.01 µM, first compound 0.01 µM) was 10.7%, the viability, T/C [3] was 10.4% and the viability, T/C [4] was 10.8%. It also gave a viability, T/C (second compound 0.0316 µM, first compound 0.000316 µM) of 11.2%, a viability, T/C (second compound 0.0316 µM, first compound 0.001 µM) of 9.92% and a viability, T/C (second compound 0.0316 µM, first compound 0.00316 µM) of 10.8%. The viability, T/C (second compound 0.0316 µM, first compound 0.01 µM) was 10.2%, the viability, T/C [5] was 10.9% and the viability, T/C [6] was 11.9%. The viability, T/C (second compound 0.1 µM, first compound 0.000316 µM) was 13.9%, the viability, T/C (second compound 0.1 µM, first compound 0.001 µM) was 12.6% and the viability, T/C (second compound 0.1 µM, first compound 0.00316 µM) was 12.5%. It also gave a viability, T/C (second compound 0.1 µM, first compound 0.01 µM) of 10.5%, a viability, T/C [7] of 13.6% and a viability, T/C [8] of 13.8%. The viability, T/C (second compound 0.316 µM, first compound 0.000316 µM) was 11.4%, the viability, T/C (second compound 0.316 µM, first compound 0.001 µM) was 16.8% and the viability, T/C (second compound 0.316 µM, first compound 0.00316 µM) was 16.9%. The viability, T/C (second compound 0.316 µM, first compound 0.01 µM) was 15.8%, the viability, T/C [9] was 12% and the viability, T/C [10] was 14.2%. For the same compound, the viability, T/C (second compound 1 µM, first compound 0.000316 µM) was 13.1%, the viability, T/C (second compound 1 µM, first compound 0.001 µM) was 12.3% and the viability, T/C (second compound 1 µM, first compound 0.00316 µM) was 13.9%. For the same compound, the viability, T/C (second compound 1 µM, first compound 0.01 µM) was 15.8%, the viability, T/C [11] was 15% and the viability, T/C [12] was 10.2%.

For `C#Cc1c(F)ccc2cc(O)cc(-c3ncc4c(N5CC6CCC(C5)N6)nc(OCC56CCCN5CC(F)C6)nc4c3F)c12` (centres undefined) + CNC(C)C(=O)NC1CN(S(=O)(=O)c2cccc(S(=O)(=O)N3CCC4CCC(C(=O)NC(c5ccccc5)c5ccccc5)N4C(=O)C(NC(=O)C(C)NC)C3)c2)CCC2CCC(C(=O)NC(c3ccccc3)c3ccccc3)N2C1=O, the pIC50 (second compound 0.00316 µM) was > 7.50, the pIC50 (second compound 0.01 µM) was > 7.50 and the pIC50 (second compound 0.0316 µM) was > 7.50. The pIC50 (second compound 0.1 µM) was > 7.50, the pIC50 (second compound 0.316 µM) was > 7.50 and the pIC50 (second compound 1 µM) was > 7.50. For the same compound, the viability, T/C [1] was 41.9%, the viability, T/C [2] was 44.3% and the viability, T/C (second compound 0.00316 µM, first compound 0.316 µM) was 16.3%. For the same compound, the viability, T/C (second compound 0.00316 µM, first compound 1 µM) was 18.9%, the viability, T/C (second compound 0.00316 µM, first compound 3.16 µM) was 11.3% and the viability, T/C (second compound 0.00316 µM, first compound 10 µM) was 2.37%. For the same compound, the viability, T/C [3] was 19%, the viability, T/C [4] was 12.6% and the viability, T/C (second compound 0.01 µM, first compound 0.316 µM) was 12.2%. For the same compound, the viability, T/C (second compound 0.01 µM, first compound 1 µM) was 11.8%, the viability, T/C (second compound 0.01 µM, first compound 3.16 µM) was 9.39% and the viability, T/C (second compound 0.01 µM, first compound 10 µM) was 4.11%. It also gave a viability, T/C [5] of 11.6%, a viability, T/C [6] of 12.4% and a viability, T/C (second compound 0.0316 µM, first compound 0.316 µM) of 10.9%. For the same compound, the viability, T/C (second compound 0.0316 µM, first compound 1 µM) was 11.4%, the viability, T/C (second compound 0.0316 µM, first compound 3.16 µM) was 9.52% and the viability, T/C (second compound 0.0316 µM, first compound 10 µM) was 3.7%. The viability, T/C [7] was 12.5%, the viability, T/C [8] was 10.4% and the viability, T/C (second compound 0.1 µM, first compound 0.316 µM) was 11.9%. For the same compound, the viability, T/C (second compound 0.1 µM, first compound 1 µM) was 11.2%, the viability, T/C (second compound 0.1 µM, first compound 3.16 µM) was 11.4% and the viability, T/C (second compound 0.1 µM, first compound 10 µM) was 3.67%. It also gave a viability, T/C [9] of 12.8%, a viability, T/C [10] of 12.9% and a viability, T/C (second compound 0.316 µM, first compound 0.316 µM) of 12.2%. It also gave a viability, T/C (second compound 0.316 µM, first compound 1 µM) of 10.8%, a viability, T/C (second compound 0.316 µM, first compound 3.16 µM) of 11.4% and a viability, T/C (second compound 0.316 µM, first compound 10 µM) of 2.21%. The viability, T/C [11] was 13.9%, the viability, T/C [12] was 12.2% and the viability, T/C (second compound 1 µM, first compound 0.316 µM) was 13%. The viability, T/C (second compound 1 µM, first compound 1 µM) was 10.6%, the viability, T/C (second compound 1 µM, first compound 3.16 µM) was 8.64% and the viability, T/C (second compound 1 µM, first compound 10 µM) was 1.87%.
